Reference: ChEMBL document CHEMBL1201861, “Genomics of Drug Sensitity in Cancer screening data, Wellcome Trust Sanger Institute”
Structures can show the parent of a compound that is named as a salt.

Experiments:
NCI-H358 = assay: cells; format: functional, cell-based, Homo sapiens; settings: Homo sapiens, NCI-H358;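 also: growth inhibition of NCI-H358 human cells, read out with a cell viability assay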
Description: SANGER: Inhibition of human NCI-H358 cell growth in a cell viability assay.

SU-DHL-1 = assay: SANGER: Inhibition of human SU-DHL-1 cell growth in a cell viability assay.; format: functional, cell-based; settings: Homo sapiens, SU-DHL-1
T84 = assay: cells; format: functional, cell-based, Homo sapiens; settings: Homo sapiens, T84;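 also: growth inhibition measured with a cell viability readout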
Description: SANGER: Inhibition of human T84 cell growth in a cell viability assay.

COLO-792 = assay: cells; format: functional, cell-based, Homo sapiens; settings: Homo sapiens, COLO-792
Description: SANGER: Inhibition of human COLO-792 cell growth in a cell viability assay.

Raji = assay: cells; format: functional, cell-based, Homo sapiens; settings: Homo sapiens, Raji;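 also: cell viability assay measuring inhibition of Raji cell growth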
Description: SANGER: Inhibition of human Raji cell growth in a cell viability assay.

HuCCT-1 = assay: cells; format: functional, cell-based, Homo sapiens, HuCCT1; settings: Homo sapiens, HuCCT-1;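 also: growth inhibition of HuCCT-1 cells, read out by a cell viability assay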
Description: SANGER: Inhibition of human HuCCT1 cell growth in a cell viability assay.

MONO-MAC-6 = assay: cells; format: functional, cell-based, Homo sapiens; settings: Homo sapiens, MONO-MAC-6;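 also: cell viability assay measuring growth inhibition of human MONO-MAC-6 cells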
Description: SANGER: Inhibition of human MONO-MAC-6 cell growth in a cell viability assay.

MDA-MB-415 = assay: cells; format: functional, cell-based, Homo sapiens; settings: Homo sapiens, MDA-MB-415
COR-L105 = assay: cells; format: functional, cell-based, Homo sapiens; settings: Homo sapiens, COR-L105
Description: SANGER: Inhibition of human COR-L105 cell growth in a cell viability assay.

OE33 = assay: cells; format: functional, cell-based, Homo sapiens; settings: Homo sapiens, OE33;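 also: growth inhibition of human OE33 cells, measured by a cell viability assay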
Description: SANGER: Inhibition of human OE33 cell growth in a cell viability assay.

Ca9-22 = assay: cells; format: functional, cell-based, Homo sapiens; settings: Homo sapiens, Ca9-22;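 also: growth inhibition of Ca9-22 cells, read out with a cell viability assay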
Description: SANGER: Inhibition of human Ca9-22 cell growth in a cell viability assay.

KYSE-180 = assay: cells; format: functional, cell-based, Homo sapiens; settings: Homo sapiens, KYSE-180;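 also: growth inhibition of KYSE-180 cells, read out with a cell viability assay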
Description: SANGER: Inhibition of human KYSE-180 cell growth in a cell viability assay.

SK-MEL-30 = assay: cells; format: functional, cell-based, Homo sapiens; settings: Homo sapiens, SK-MEL-30;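 also: growth inhibition of SK-MEL-30 cells, determined with a cell viability assay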
Description: SANGER: Inhibition of human SK-MEL-30 cell growth in a cell viability assay.

AGS = assay: cells; format: functional, cell-based, Homo sapiens; settings: Homo sapiens, AGS;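 also: growth inhibition of AGS cells, determined with a cell viability assay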
Description: SANGER: Inhibition of human AGS cell growth in a cell viability assay.

NCI-H1563 = assay: cells; format: functional, cell-based, Homo sapiens; settings: Homo sapiens, NCI-H1563;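 also: growth inhibition of human NCI-H1563 cells, read out with a cell viability assay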
Description: SANGER: Inhibition of human NCI-H1563 cell growth in a cell viability assay.

U-118-MG = assay: cells; format: functional, cell-based, Homo sapiens; settings: Homo sapiens, U-118-MG
Description: SANGER: Inhibition of human U-118-MG cell growth in a cell viability assay.

GMS-10 = assay: cells; format: functional, cell-based, Homo sapiens; settings: Homo sapiens, GMS-10;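 also: growth inhibition of GMS-10 cells, read out as cell viability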
Description: SANGER: Inhibition of human GMS-10 cell growth in a cell viability assay.

NCI-H2405 = assay: cells; format: functional, cell-based, Homo sapiens; settings: Homo sapiens, NCI-H2405;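 also: growth inhibition of the human cell line, read out with a cell viability assay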
Description: SANGER: Inhibition of human NCI-H2405 cell growth in a cell viability assay.

D-542MG = assay: cells; format: functional, cell-based, Homo sapiens; settings: Homo sapiens, D-542MG
Description: SANGER: Inhibition of human D-542MG cell growth in a cell viability assay.

CaR-1 = assay: cells; format: functional, cell-based, Homo sapiens; settings: Homo sapiens, CaR-1;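 also: growth inhibition of human CaR-1 cancer cells, read out with a cell viability assay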
Description: SANGER: Inhibition of human CaR-1 cell growth in a cell viability assay.

NCI-H1436 = assay: cells; format: functional, cell-based, Homo sapiens; settings: Homo sapiens, NCI-H1436;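 also: growth suppression of human NCI-H1436 cells, determined with a cell viability readout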
Description: SANGER: Inhibition of human NCI-H1436 cell growth in a cell viability assay.

G-401 = assay: cells; format: functional, cell-based, Homo sapiens; settings: Homo sapiens, G-401
Description: SANGER: Inhibition of human G-401 cell growth in a cell viability assay.

JIYOYE = assay: cells; format: functional, cell-based, Homo sapiens; settings: Homo sapiens, JIYOYE
Description: SANGER: Inhibition of human JiyoyeP-2003 cell growth in a cell viability assay.

KYSE-510 = assay: cells; format: functional, cell-based, Homo sapiens; settings: Homo sapiens, KYSE-510;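 also: cell viability readout used to measure how strongly growth of the cell line is suppressed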
Description: SANGER: Inhibition of human KYSE-510 cell growth in a cell viability assay.

SCC-4 = assay: cells; format: functional, cell-based, Homo sapiens; settings: Homo sapiens, SCC-4;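 also: growth inhibition of human SCC-4 cells, read out as cell viability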
Description: SANGER: Inhibition of human SCC-4 cell growth in a cell viability assay.

RT-112 = assay: cells; format: functional, cell-based, Homo sapiens; settings: Homo sapiens, RT-112
Description: SANGER: Inhibition of human RT-112 cell growth in a cell viability assay.

UMUC3 = assay: cells; format: functional, cell-based, Homo sapiens; settings: Homo sapiens, UMUC3;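 also: growth inhibition of human UM-UC-3 cells, read out with a cell viability assay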
Description: SANGER: Inhibition of human UM-UC-3 cell growth in a cell viability assay.

H4 = assay: cells; format: functional, cell-based, Homo sapiens; settings: Homo sapiens, H4
Description: SANGER: Inhibition of human H4 cell growth in a cell viability assay.

M059J = assay: cells; format: functional, cell-based, Homo sapiens; settings: Homo sapiens, M059J;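 also: growth inhibition of M059J cells, read out with a cell viability assay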
Description: SANGER: Inhibition of human M059J cell growth in a cell viability assay.

NCI-H441 = assay: cells; format: functional, cell-based, Homo sapiens; settings: Homo sapiens, NCI-H441;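 also: growth inhibition of NCI-H441 cells, read out with a cell viability assay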
Description: SANGER: Inhibition of human NCI-H441 cell growth in a cell viability assay.

NCI-H727 = assay: cells; format: functional, cell-based, Homo sapiens; settings: Homo sapiens, NCI-H727;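 also: growth inhibition of human NCI-H727 cells, read out with a cell viability assay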
Description: SANGER: Inhibition of human NCI-H727 cell growth in a cell viability assay.

THP-1 = assay: cells; format: functional, cell-based, Homo sapiens; settings: Homo sapiens, THP-1;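 also: growth inhibition of THP-1 cells, read out via a cell viability assay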
Description: SANGER: Inhibition of human THP-1 cell growth in a cell viability assay.

HT-1376 = assay: cells; format: functional, cell-based, Homo sapiens; settings: Homo sapiens, HT-1376
Description: SANGER: Inhibition of human HT-1376 cell growth in a cell viability assay.

SW837 = assay: cells; format: functional, cell-based, Homo sapiens; settings: Homo sapiens, SW837;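 also: growth inhibition of SW837 cells, determined with a cell viability assay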
Description: SANGER: Inhibition of human SW837 cell growth in a cell viability assay.

WSU-NHL = assay: cells; format: functional, cell-based, Homo sapiens; settings: Homo sapiens, WSU-NHL;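 also: growth inhibition of human WSU-NHL cells, read out with a cell viability assay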
Description: SANGER: Inhibition of human WSU-NHL cell growth in a cell viability assay.

CESS = assay: SANGER: Inhibition of human CESS cell growth in a cell viability assay.; format: functional, cell-based; settings: Homo sapiens, CESS
MeWo = assay: cells; format: functional, cell-based, Homo sapiens; settings: Homo sapiens, MeWo;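 also: growth inhibition of MeWo cells, determined by a cell viability readout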
Description: SANGER: Inhibition of human Mewo cell growth in a cell viability assay.

NCI-H2030 = assay: cells; format: functional, cell-based, Homo sapiens; settings: Homo sapiens, NCI-H2030;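 also: growth inhibition of human NCI-H2030 cells, read out by a cell viability assay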
Description: SANGER: Inhibition of human NCI-H2030 cell growth in a cell viability assay.

HT1197 = assay: cells; format: functional, cell-based, Homo sapiens, HT-1197; settings: Homo sapiens, HT1197
Description: SANGER: Inhibition of human HT-1197 cell growth in a cell viability assay.

HCC1599 = assay: cells; format: functional, cell-based, Homo sapiens; settings: Homo sapiens, HCC1599;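 also: growth inhibition of HCC1599 cells, read out in a cell viability assay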
Description: SANGER: Inhibition of human HCC1599 cell growth in a cell viability assay.

KYSE-150 cell line = assay: cells; format: functional, cell-based, Homo sapiens; settings: Homo sapiens, KYSE-150;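 also: growth inhibition of human KYSE-150 cells, read out with a cell viability assay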
Description: SANGER: Inhibition of human KYSE-150 cell growth in a cell viability assay.

OPM-2 = assay: cells; format: functional, cell-based, Homo sapiens; settings: Homo sapiens, OPM-2;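 also: growth of OPM-2 cells measured with a viability assay, IC50 for suppression of proliferation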
Description: SANGER: Inhibition of human OPM-2 cell growth in a cell viability assay.

COR-L279 = assay: SANGER: Inhibition of human COR-L279 cell growth in a cell viability assay.; format: functional, cell-based; settings: Homo sapiens, COR-L279
RCM-1 = assay: cells; format: functional, cell-based, Homo sapiens; settings: Homo sapiens, RCM-1;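 also: growth inhibition of the RCM-1 line, determined with a cell viability readout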
Description: SANGER: Inhibition of human RCM-1 cell growth in a cell viability assay.

RD = assay: cells; format: functional, cell-based, Homo sapiens; settings: Homo sapiens, RD
Description: SANGER: Inhibition of human RD cell growth in a cell viability assay.

SCC-3 = assay: cells; format: functional, cell-based, Homo sapiens; settings: Homo sapiens, SCC-3;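 also: cell viability assay measuring inhibition of SCC-3 cell growth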
Description: SANGER: Inhibition of human SCC-3 cell growth in a cell viability assay.

NCI-H2452 = assay: cells; format: functional, cell-based, Homo sapiens; settings: Homo sapiens, NCI-H2452;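 also: growth inhibition of NCI-H2452 cells, read out with a cell viability assay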
Description: SANGER: Inhibition of human NCI-H2452 cell growth in a cell viability assay.

Nc1ccn([C@@H]2O[C@H](CO)[C@@H](O)C2(F)F)c(=O)n1 [GEMCITABINE]
IC50 (NCI-H358): 7.16 nM | IC50 (SU-DHL-1): 62.7 nM | IC50 (T84): 16 nM | IC50 (COLO-792): > 1020 nM | IC50 (Raji): 431 nM | IC50 (HuCCT-1): 20.6 nM | IC50 (MONO-MAC-6): 24.8 nM | IC50 (MDA-MB-415): > 1020 nM | IC50 (COR-L105): 29.4 nM | IC50 (OE33): 61.2 nM | IC50 (Ca9-22): 1.54 nM | IC50 (KYSE-180): 12.8 nM | IC50 (SK-MEL-30): < 4 nM | IC50 (AGS): < 4 nM | IC50 (NCI-H1563): > 1020 nM | IC50 (U-118-MG): > 1020 nM | IC50 (GMS-10): > 1020 nM | IC50 (NCI-H2405): 19.1 nM | IC50 (D-542MG): > 1020 nM | IC50 (CaR-1): 551 nM | IC50 (NCI-H1436): > 1020 nM | IC50 (G-401): 55.2 nM | IC50 (JIYOYE): 39.4 nM | IC50 (KYSE-510): < 4 nM | IC50 (SCC-4): 212 nM | IC50 (RT-112): < 4 nM | IC50 (UMUC3): 16.2 nM | IC50 (H4): 2.18 nM | IC50 (M059J): 21.1 nM | IC50 (NCI-H441): 5.6 nM | IC50 (NCI-H727): 2.51 nM | IC50 (THP-1): 664 nM | IC50 (HT-1376): 369 nM | IC50 (SW837): 27.6 nM | IC50 (WSU-NHL): 50.3 nM | IC50 (CESS): 23.2 nM | IC50 (MeWo): > 1020 nM | IC50 (NCI-H2030): 30.4 nM | IC50 (HT1197): > 1020 nM | IC50 (HCC1599): 70.2 nM | IC50 (KYSE-150 cell line): 8.47 nM | IC50 (OPM-2): > 1020 nM | IC50 (COR-L279): 53.9 nM | IC50 (RCM-1): 665 nM | IC50 (RD): 130 nM | IC50 (SCC-3): 89.6 nM | IC50 (NCI-H2452): > 1020 nM

COC1=CC(c2cc3ccccc3[nH]2)=N/C1=C\c1[nH]c(C)cc1C [OBATOCLAX MESYLATE]
IC50 (NCI-H358): 78.8 nM | IC50 (SU-DHL-1): 1250 nM | IC50 (T84): 212 nM | IC50 (COLO-792): 132 nM | IC50 (Raji): 1020 nM | IC50 (HuCCT-1): 83.3 nM | IC50 (MONO-MAC-6): 438 nM | IC50 (MDA-MB-415): 2180 nM | IC50 (COR-L105): 322 nM | IC50 (OE33): 251 nM | IC50 (Ca9-22): 111 nM | IC50 (KYSE-180): 61.4 nM | IC50 (SK-MEL-30): < 62.5 nM | IC50 (AGS): 386 nM | IC50 (NCI-H1563): > 16000 nM | IC50 (U-118-MG): 409 nM | IC50 (GMS-10): 2580 nM | IC50 (NCI-H2405): 347 nM | IC50 (D-542MG): 170 nM | IC50 (CaR-1): 3980 nM | IC50 (NCI-H1436): 1260 nM | IC50 (G-401): 30.9 nM | IC50 (JIYOYE): 203 nM | IC50 (KYSE-510): < 62.5 nM | IC50 (SCC-4): 2140 nM | IC50 (RT-112): 666 nM | IC50 (UMUC3): 291 nM | IC50 (H4): 1150 nM | IC50 (M059J): 1360 nM | IC50 (NCI-H441): 191 nM | IC50 (NCI-H727): 80.5 nM | IC50 (THP-1): 20 nM | IC50 (HT-1376): 127 nM | IC50 (SW837): 467 nM | IC50 (WSU-NHL): 75.5 nM | IC50 (CESS): 82.7 nM | IC50 (MeWo): 4960 nM | IC50 (NCI-H2030): 227 nM | IC50 (HT1197): 395 nM | IC50 (HCC1599): 500 nM | IC50 (KYSE-150 cell line): 40.1 nM | IC50 (OPM-2): 509 nM | IC50 (COR-L279): 572 nM | IC50 (RCM-1): 572 nM | IC50 (RD): 140 nM | IC50 (SCC-3): 446 nM | IC50 (NCI-H2452): > 16000 nM

C=C(c1ccc(C(=O)O)cc1)c1cc2c(cc1C)C(C)(C)CCC2(C)C [BEXAROTENE]
IC50 (NCI-H358): > 8000 nM | IC50 (SU-DHL-1): > 8000 nM | IC50 (T84): > 8000 nM | IC50 (COLO-792): > 8000 nM | IC50 (Raji): > 8000 nM | IC50 (HuCCT-1): > 8000 nM | IC50 (MONO-MAC-6): > 8000 nM | IC50 (MDA-MB-415): > 8000 nM | IC50 (COR-L105): > 8000 nM | IC50 (OE33): > 8000 nM | IC50 (Ca9-22): > 8000 nM | IC50 (KYSE-180): 5030 nM | IC50 (SK-MEL-30): > 8000 nM | IC50 (AGS): > 8000 nM | IC50 (NCI-H1563): > 8000 nM | IC50 (U-118-MG): > 8000 nM | IC50 (GMS-10): > 8000 nM | IC50 (NCI-H2405): > 8000 nM | IC50 (D-542MG): > 8000 nM | IC50 (CaR-1): > 8000 nM | IC50 (NCI-H1436): > 8000 nM | IC50 (G-401): > 8000 nM | IC50 (JIYOYE): > 8000 nM | IC50 (KYSE-510): > 8000 nM | IC50 (SCC-4): > 8000 nM | IC50 (RT-112): > 8000 nM | IC50 (UMUC3): > 8000 nM | IC50 (H4): > 8000 nM | IC50 (M059J): > 8000 nM | IC50 (NCI-H441): > 8000 nM | IC50 (NCI-H727): > 8000 nM | IC50 (THP-1): > 8000 nM | IC50 (HT-1376): > 8000 nM | IC50 (SW837): > 8000 nM | IC50 (WSU-NHL): > 8000 nM | IC50 (CESS): > 8000 nM | IC50 (MeWo): > 8000 nM | IC50 (NCI-H2030): > 8000 nM | IC50 (HT1197): > 8000 nM | IC50 (HCC1599): > 8000 nM | IC50 (KYSE-150 cell line): > 8000 nM | IC50 (OPM-2): > 8000 nM | IC50 (COR-L279): > 8000 nM | IC50 (RCM-1): > 8000 nM | IC50 (RD): > 8000 nM | IC50 (SCC-3): > 8000 nM | IC50 (NCI-H2452): > 8000 nM
